Laboratory results published in ChEMBL document CHEMBL1201862, “PubChem BioAssay data set” (2004).
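Five concentrations, 48 hours, 96-well plates. GI50 marks 50% less growth.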 The source made the active and inactive calls. No stated cut-off is given here; in the data, active = GI50 up to about 1.1 µM and inactive = higher.

Key:
Assay in all cases: inhibition of tumour cell growth, NCI panel, 48 h
786-0 = system: 786-0
A498 = system: A498
A549 = system: A549
ACHN = system: ACHN
BT-549 = system: BT-549
CAKI-1 = system: CAKI-1
COLO 205 = system: COLO 205
DU-145 = system: DU-145
EKVX = system: EKVX
HCT-116 = system: HCT-116
HCT-15 = system: HCT-15
HL-60 = system: HL-60
HOP-62 = system: HOP-62
HOP-92 = system: HOP-92
HT-29 = system: HT-29
Hs-578T = system: Hs-578T
IGROV-1 = system: IGROV-1
K562 = system: K562
KM12 = system: KM12
LOX IMVI = system: LOX IMVI
M14 = system: M14
MCF7 = system: MCF7
MDA-MB-231 = system: MDA-MB-231
MDA-MB-435 = system: MDA-MB-435
MDA-N = system: MDA-N
NCI-H226 = system: NCI-H226
NCI-H23 = system: NCI-H23
NCI-H460 = system: NCI-H460
NCI-H522 = system: NCI-H522
NCI/ADR-RES = system: NCI/ADR-RES
OVCAR-3 = system: OVCAR-3
OVCAR-4 = system: OVCAR-4
OVCAR-5 = system: OVCAR-5
OVCAR-8 = system: OVCAR-8
PC-3 = system: PC-3
RPMI-8226 = system: RPMI-8226
SF-268 = system: SF-268
SF-295 = system: SF-295
SK-MEL-28 = system: SK-MEL-28
SK-MEL-2 = system: SK-MEL-2
SK-MEL-5 = system: SK-MEL-5
SN12C = system: SN12C
SNB-19 = system: SNB-19
SW-620 = system: SW-620
T47D = system: T47D
TK-10 = system: TK-10
U-251 = system: U-251
UACC-257 = system: UACC-257
UACC-62 = system: UACC-62
UO-31 = system: UO-31
CCRF-CEM = system: CCRF-CEM
HCC 2998 = system: HCC 2998
MOLT-4 = system: MOLT-4
Malme-3M = system: Malme-3M
SF-539 = system: SF-539
SK-OV-3 = system: SK-OV-3
SNB-75 = system: SNB-75
RXF 393 = system: RXF 393
SR = system: SR

Measured: GI50

COc1cc(NS(C)(=O)=O)ccc1Nc1cc(C)nc2ccc3[nH]ccc3c12
inactive: 786-0 > 100 µM | A498 > 100 µM | A549 > 100 µM | ACHN > 100 µM | BT-549 > 100 µM | CAKI-1 > 100 µM | COLO 205 > 100 µM | DU-145 > 100 µM | EKVX > 100 µM | HCT-116 > 100 µM | HL-60 > 100 µM | HOP-62 > 100 µM | HOP-92 > 100 µM | HT-29 > 100 µM | Hs-578T > 100 µM | IGROV-1 > 100 µM | K562 > 100 µM | KM12 > 100 µM | LOX IMVI > 100 µM | M14 > 100 µM | MCF7 > 100 µM | MDA-MB-231 > 100 µM | MDA-MB-435 > 100 µM | MDA-N > 100 µM | NCI-H226 > 100 µM | NCI-H23 > 100 µM | NCI-H460 > 100 µM | NCI-H522 8.69 µM | NCI/ADR-RES > 100 µM | OVCAR-3 > 100 µM | OVCAR-4 > 100 µM | OVCAR-5 > 100 µM | OVCAR-8 > 100 µM | PC-3 > 100 µM | RPMI-8226 > 100 µM | SF-268 > 100 µM | SF-295 > 100 µM | SK-MEL-28 > 100 µM | SK-MEL-2 > 100 µM | SK-MEL-5 > 100 µM | SN12C > 100 µM | SNB-19 > 100 µM | SW-620 > 100 µM | T47D > 100 µM | TK-10 > 100 µM | U-251 > 100 µM | UACC-257 > 100 µM | UACC-62 > 100 µM | UO-31 > 100 µM
> 100 µM: HCT-15

CC1(C)[C@H]2Cc3cc4nc5ccccn5c4cc3[C@@H]1C2
inactive: 786-0 17.2 µM | A549 16.4 µM | ACHN 18.7 µM | BT-549 24.9 µM | CAKI-1 14.1 µM | CCRF-CEM 31.3 µM | COLO 205 18.4 µM | DU-145 20.8 µM | EKVX 15.9 µM | HCC 2998 18.3 µM | HCT-116 17.5 µM | HL-60 22.4 µM | HOP-62 18.7 µM | HOP-92 14.5 µM | HT-29 14.1 µM | Hs-578T 15.6 µM | IGROV-1 19 µM | K562 19.8 µM | KM12 18.6 µM | LOX IMVI 19.6 µM | M14 19.8 µM | MCF7 3.37 µM | MDA-MB-231 13 µM | MDA-MB-435 15.3 µM | MDA-N 17.3 µM | MOLT-4 27.1 µM | Malme-3M 12.4 µM | NCI-H226 16.2 µM | NCI-H23 17 µM | NCI-H460 18.4 µM | NCI-H522 4.58 µM | NCI/ADR-RES 18.2 µM | OVCAR-3 17.5 µM | OVCAR-4 12 µM | OVCAR-5 13.9 µM | OVCAR-8 14.6 µM | PC-3 17.9 µM | RPMI-8226 14.5 µM | SF-268 17.6 µM | SF-295 15.2 µM | SF-539 16.4 µM | SK-MEL-28 16 µM | SK-MEL-2 15.5 µM | SK-MEL-5 17.6 µM | SK-OV-3 17.3 µM | SN12C 19.2 µM | SNB-19 16 µM | SNB-75 13.6 µM | SW-620 20.8 µM | T47D 20.7 µM | TK-10 16.3 µM | U-251 15.7 µM | UACC-257 17.6 µM | UACC-62 15.6 µM | UO-31 14 µM
19.2 µM: HCT-15

OCCOCCN1CCN(CCCN2c3ccccc3Sc3ccc(C(F)(F)F)cc32)CC1
21.6 µM: HCT-15
active: CCRF-CEM 0.337 µM | T47D 0.955 µM
inactive: 786-0 16.6 µM | A498 10.5 µM | A549 13.1 µM | ACHN 17.7 µM | BT-549 19.8 µM | CAKI-1 15.3 µM | COLO 205 1.75 µM | DU-145 14.2 µM | EKVX 14.8 µM | HCC 2998 2.78 µM | HCT-116 7.91 µM | HOP-62 17.6 µM | HOP-92 14.1 µM | HT-29 2.33 µM | Hs-578T 11.9 µM | IGROV-1 9.84 µM | K562 2.79 µM | KM12 6.7 µM | LOX IMVI 3.97 µM | M14 2.65 µM | MCF7 13.1 µM | MDA-MB-231 11.1 µM | MDA-MB-435 11.1 µM | MDA-N 13 µM | MOLT-4 13.1 µM | NCI-H226 16.4 µM | NCI-H23 16.4 µM | NCI-H460 9.95 µM | NCI-H522 14.7 µM | OVCAR-3 17.7 µM | OVCAR-4 15.7 µM | OVCAR-5 14.3 µM | OVCAR-8 15.2 µM | PC-3 15.6 µM | RPMI-8226 3.17 µM | RXF 393 3.18 µM | SF-268 16.5 µM | SF-295 12.9 µM | SF-539 12.4 µM | SK-MEL-28 3.27 µM | SK-MEL-2 19.4 µM | SK-MEL-5 3.22 µM | SK-OV-3 19.5 µM | SN12C 13.6 µM | SNB-19 14.4 µM | SNB-75 2.39 µM | SW-620 15.5 µM | TK-10 11.7 µM | U-251 12.3 µM | UACC-257 5.15 µM | UACC-62 6.65 µM | UO-31 5.74 µM

C=C(C)C12OC1[C@@]1(C)C(=CC2=O)CCC(O)[C@@H]1C (stereo partly drawn)
1.92 µM: HCT-15
inactive: 786-0 1.64 µM | A498 5.19 µM | A549 1.42 µM | BT-549 4.19 µM | COLO 205 1.61 µM | EKVX 1.94 µM | HCT-116 1.15 µM | HL-60 1.16 µM | HOP-62 1.4 µM | HOP-92 16.7 µM | HT-29 1.21 µM | Hs-578T 1.75 µM | KM12 2.44 µM | LOX IMVI 2.67 µM | M14 3.72 µM | MCF7 3.53 µM | MDA-MB-231 1.52 µM | MDA-MB-435 3.29 µM | MDA-N 2.68 µM | Malme-3M 3.38 µM | NCI-H23 2.26 µM | OVCAR-3 3.68 µM | OVCAR-4 3.45 µM | OVCAR-5 8.51 µM | OVCAR-8 1.45 µM | PC-3 2.65 µM | RPMI-8226 2.43 µM | SF-268 2.14 µM | SF-295 2.58 µM | SF-539 1.97 µM | SK-MEL-28 3.89 µM | SK-MEL-2 2.34 µM | SK-MEL-5 3.22 µM | SN12C 1.36 µM | SNB-19 1.69 µM | SNB-75 3.42 µM | SR 1.84 µM | SW-620 2.39 µM | T47D 3.16 µM | TK-10 3.73 µM | U-251 1.14 µM | UACC-257 3.34 µM | UACC-62 3.66 µM | UO-31 1.49 µM
active: ACHN 0.417 µM | CAKI-1 0.398 µM | CCRF-CEM 0.726 µM | DU-145 1.05 µM | HCC 2998 0.718 µM | IGROV-1 0.891 µM | MOLT-4 0.863 µM | NCI-H460 0.743 µM | NCI-H522 0.782 µM

CCN(CC)C(=S)SS(=O)(=O)c1ccccc1[N+](=O)[O-]
active: IGROV-1 0.504 µM | MOLT-4 0.415 µM | NCI-H522 0.404 µM | SR 0.359 µM
inactive: 786-0 18.6 µM | A498 > 56.6 µM | A549 14.7 µM | ACHN 43.8 µM | BT-549 > 51.2 µM | CAKI-1 22.3 µM | CCRF-CEM 2.51 µM | COLO 205 > 53.5 µM | DU-145 27.3 µM | EKVX > 100 µM | HCC 2998 > 49.2 µM | HCT-116 18.2 µM | HL-60 2.47 µM | HOP-62 22 µM | HOP-92 24 µM | HT-29 16.9 µM | Hs-578T 31.1 µM | K562 11.7 µM | KM12 > 35.4 µM | LOX IMVI 17.3 µM | M14 25 µM | MDA-MB-231 18.1 µM | MDA-MB-435 21.7 µM | MDA-N 38.9 µM | Malme-3M 10.2 µM | NCI-H226 > 60 µM | NCI-H23 > 54 µM | NCI-H460 25.1 µM | NCI/ADR-RES 41.3 µM | OVCAR-3 22.2 µM | OVCAR-4 44.3 µM | OVCAR-5 > 50.4 µM | OVCAR-8 22.9 µM | PC-3 54.5 µM | RPMI-8226 15.2 µM | RXF 393 20.8 µM | SF-268 30.7 µM | SF-295 31.8 µM | SF-539 19.9 µM | SK-MEL-28 18.7 µM | SK-MEL-2 > 76.7 µM | SK-MEL-5 5.83 µM | SK-OV-3 > 71.4 µM | SN12C 22 µM | SNB-19 > 53.7 µM | SNB-75 76.2 µM | SW-620 20.9 µM | T47D 28.1 µM | TK-10 31.9 µM | U-251 21.7 µM | UACC-257 36.8 µM | UACC-62 35 µM | UO-31 14.5 µM
57.9 µM: HCT-15
